The nature of this test: Inhibition of PAR1-mediated aggregation of TRAP-stimulated human platelet.

`CCOC(=O)N[C@@H]1CC[C@@H]2[C@@H](C1)C[C@H]1C(=O)O[C@H](C)[C@H]1[C@H]2C=Cc1ccc(-c2ccccn2)cn1` [ethyl(1R,3aR,4aR,6R,8aR,9S,9aS)-9-((E)-2-(2,3'-bipyridin-6'-yl)vinyl)-1-methyl-3-oxododecahydronaphtho[2,3-c]furan-6-ylcarbamate]: the IC50 was 0.18 µM.

The record behind these values is BindingDB's records for doi:10.1016/j.bmcl.2010.09.009 (Merck Research Laboratories, 2010).
